Experimental data published in patent publication US8987268B2, “Pyrrolopyridazine JAK3 inhibitors and their use for the treatment of inflammatory and autoimmune diseases” (Bristol-Myers Squibb Company, priority 2011, dated 2015).
Structures can show the parent of a compound that is named as a salt. Where two headings read alike, the source gives them in different places.

Tests used:
[1] = target: GST-JAK3 enzyme (Homo sapiens (Human), UniProt P52333); assay: JAK3 Kinase Assay Protocol (Caliper); assay type: biochemical; details: JAK3 kinase inhibition; read-out: LLE_JAK3_FB (IC50)
Sequence of GST-JAK3 enzyme (P52333 whole entry): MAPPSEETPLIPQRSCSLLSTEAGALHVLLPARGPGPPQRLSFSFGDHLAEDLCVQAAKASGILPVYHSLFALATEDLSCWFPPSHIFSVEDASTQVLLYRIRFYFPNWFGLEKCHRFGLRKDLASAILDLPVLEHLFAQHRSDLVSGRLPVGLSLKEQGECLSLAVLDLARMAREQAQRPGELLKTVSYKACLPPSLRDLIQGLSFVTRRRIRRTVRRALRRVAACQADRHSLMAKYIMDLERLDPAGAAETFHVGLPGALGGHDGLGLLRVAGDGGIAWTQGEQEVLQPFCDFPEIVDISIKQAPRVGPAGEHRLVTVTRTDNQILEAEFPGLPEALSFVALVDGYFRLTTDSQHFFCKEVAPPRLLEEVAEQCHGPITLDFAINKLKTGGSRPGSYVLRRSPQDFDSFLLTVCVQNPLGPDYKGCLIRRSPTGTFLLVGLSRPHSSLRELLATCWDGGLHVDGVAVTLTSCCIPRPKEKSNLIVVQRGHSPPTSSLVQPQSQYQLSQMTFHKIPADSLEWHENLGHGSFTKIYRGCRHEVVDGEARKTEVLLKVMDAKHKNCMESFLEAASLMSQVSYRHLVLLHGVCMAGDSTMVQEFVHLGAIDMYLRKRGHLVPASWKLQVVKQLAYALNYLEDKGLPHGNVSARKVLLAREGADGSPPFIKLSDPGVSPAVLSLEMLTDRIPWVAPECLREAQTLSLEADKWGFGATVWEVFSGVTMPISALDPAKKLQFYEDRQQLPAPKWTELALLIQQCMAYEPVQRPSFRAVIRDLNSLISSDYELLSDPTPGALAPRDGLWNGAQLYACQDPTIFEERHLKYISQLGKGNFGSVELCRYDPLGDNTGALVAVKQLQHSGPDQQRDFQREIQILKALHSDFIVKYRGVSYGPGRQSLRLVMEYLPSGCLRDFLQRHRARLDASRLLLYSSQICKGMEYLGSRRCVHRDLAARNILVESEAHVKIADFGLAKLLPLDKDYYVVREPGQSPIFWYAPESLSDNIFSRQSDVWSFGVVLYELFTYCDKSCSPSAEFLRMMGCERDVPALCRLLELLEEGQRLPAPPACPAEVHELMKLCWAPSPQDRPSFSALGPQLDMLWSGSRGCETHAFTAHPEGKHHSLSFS
Procedure: JAK3 Kinase Assay Protocol (Caliper)
(§1) The assay reactions were performed in U-bottom 384-well plates. […] The reaction was initiated by the combination of GST-JAK3 enzyme with substrates and test compounds. The reactions were incubated at room temperature for 3 hours and terminated by adding 60 μl of 35 mM EDTA to each sample. Each reaction mixture was analyzed on the Caliper LabChip 3000 (Caliper, Hopkinton, Mass.) by electrophoretic separation of the fluorescent substrate and phosphorylated product. […] Compounds were dissolved at 10 mM in dimethylsulfoxide (DMSO) and evaluated at eleven concentrations. IC50 values were derived by non-linear regression analysis.

[2] = target: GST-JAK1 enzyme (Homo sapiens (Human), UniProt P23458); assay: JAK1 Kinase Assay Protocol; assay type: biochemical; details: read-out: LLE_JAK1 (IC50)
Sequence of GST-JAK1 enzyme (P23458 whole entry): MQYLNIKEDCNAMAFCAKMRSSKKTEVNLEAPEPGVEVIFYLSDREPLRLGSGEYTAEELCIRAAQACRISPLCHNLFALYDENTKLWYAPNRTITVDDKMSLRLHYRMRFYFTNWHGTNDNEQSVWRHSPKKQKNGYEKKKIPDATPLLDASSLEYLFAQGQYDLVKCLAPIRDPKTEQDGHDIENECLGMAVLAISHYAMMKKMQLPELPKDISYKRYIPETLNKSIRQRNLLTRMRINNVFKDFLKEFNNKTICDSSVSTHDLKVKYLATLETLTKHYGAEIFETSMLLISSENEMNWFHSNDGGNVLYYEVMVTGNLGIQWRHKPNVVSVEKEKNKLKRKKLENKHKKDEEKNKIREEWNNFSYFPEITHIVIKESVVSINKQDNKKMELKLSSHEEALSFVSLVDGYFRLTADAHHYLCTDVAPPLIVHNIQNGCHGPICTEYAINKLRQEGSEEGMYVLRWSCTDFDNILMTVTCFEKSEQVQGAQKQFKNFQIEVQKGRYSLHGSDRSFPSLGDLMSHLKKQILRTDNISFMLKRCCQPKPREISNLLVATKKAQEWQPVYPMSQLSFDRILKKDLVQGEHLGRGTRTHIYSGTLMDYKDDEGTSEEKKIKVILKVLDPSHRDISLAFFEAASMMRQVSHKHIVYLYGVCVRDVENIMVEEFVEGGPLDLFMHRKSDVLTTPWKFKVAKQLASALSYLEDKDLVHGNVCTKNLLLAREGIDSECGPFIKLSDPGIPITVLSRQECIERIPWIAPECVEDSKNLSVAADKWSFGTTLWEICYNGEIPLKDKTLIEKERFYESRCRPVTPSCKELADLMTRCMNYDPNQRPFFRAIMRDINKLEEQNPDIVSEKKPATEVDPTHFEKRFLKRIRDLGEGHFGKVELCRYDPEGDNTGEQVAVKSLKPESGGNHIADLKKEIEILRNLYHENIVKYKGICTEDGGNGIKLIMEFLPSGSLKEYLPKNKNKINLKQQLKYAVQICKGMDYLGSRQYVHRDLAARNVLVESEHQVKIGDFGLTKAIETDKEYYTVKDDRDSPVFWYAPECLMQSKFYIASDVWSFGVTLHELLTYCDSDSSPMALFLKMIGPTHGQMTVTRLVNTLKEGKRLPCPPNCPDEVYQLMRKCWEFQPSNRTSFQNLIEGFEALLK
Procedure: JAK1 Kinase Assay Protocol
as §1, with “GST-JAK1” for “GST-JAK3”

Row | IC50 [1] [nM] | IC50 ([2]; JAK1 kinase inhibition) [nM] | Structure (SMILES) | IC50 [2] [nM]
1 | 1.5 | 1 | CC[C@@H]1CN(S(C)(=O)=O)CC[C@H]1Nc1c(C(N)=O)cnn2cc(-c3cnn(CCC#N)c3)cc12 [Example 126, 6-(1-(2-cyanoethyl)-1H-pyrazol-4-yl)-4-((3R,4R)-3-ethyl-1-(methylsulfonyl)piperidin-4-ylamino)pyrrolo[1,2-b]pyridazine-3-carboxamide] | 
2 | 7.8 | 9 | CC[C@@H]1CN(C(=O)[C@@H](C)O)CC[C@H]1Nc1c(C(N)=O)cnn2cc(-c3cnn(C)c3)cc12 [Example 152, 4-((3R,4R)-3-ethyl-1-((R)-2-hydroxypropanoyl)piperidin-4-ylamino)-6-(1-methyl-1H-pyrazol-4-yl)pyrrolo[1,2-b]pyridazine-3-carboxamide] | 
3 | 1.5 | 1.1 | CC[C@H]1CN(C(=O)C2(C#N)CC2)C[C@H]1Nc1c(C(N)=O)cnn2cc(-c3cn(C)nc3C)cc12 [Example 220, 4-((3S,4S)-1-(1-cyanocyclopropanecarbonyl)-4-ethylpyrrolidin-3-ylamino)-6-(1,3-dimethyl-1H-pyrazol-4-yl)pyrrolo[1,2-b]pyridazine-3-carboxamide] | 
4 | 1.8 | 0.8 | CC(=O)N1CCN(c2cc3c(N[C@@H]4C[C@@H]5CN(S(C)(=O)=O)C[C@@H]5[C@H]4C)c(C(N)=O)cnn3c2)C1=O [Example 60, 6-(3-acetyl-2-oxo-1-imidazolidinyl)-4-(((3aS,4R,5R,6aS)-4-methyl-2-(methylsulfonyl)octahydrocyclopenta[c]pyrrol-5-yl)amino)pyrrolo[1,2-b]pyridazine-3-carboxamide] | 
5 | 0.6 | 0.2 | C[C@@H]1[C@H]2CN(S(C)(=O)=O)C[C@H]2C[C@H]1Nc1c(C(N)=O)cnn2cc(-c3cnc(N)nc3)cc12 [Example 59, 6-(2-amino-5-pyrimidinyl)-4-(((3aS,4R,5R,6aS)-4-methyl-2-(methylsulfonyl)octahydrocyclopenta[c]pyrrol-5-yl)amino)pyrrolo[1,2-b]pyridazine-3-carboxamide] | 
6 | 0.4 | 0.3 | C[C@@H]1[C@H]2CN(C(=O)CO)C[C@H]2C[C@H]1Nc1c(C(N)=O)cnn2cc(-c3ccc(C(=O)NC4CC4)cc3)cc12 [Example 70, 6-(4-(cyclopropylcarbamoyl)phenyl)-4-((3aS,4R,5R,6aS)-2-(2-hydroxyacetyl)-4-methyloctahydrocyclopenta[c]pyrrol-5-ylamino)pyrrolo[1,2-b]pyridazine-3-carboxamide] | 
7 |  | 6.2 | CS(=O)(=O)N1C[C@H](CF)[C@H](Nc2c(C(N)=O)cnn3cc(-c4ccc(C(F)(F)F)nc4)cc23)C1 (racemic) [Example 275, (+/−)-Cis-4-((-4-(fluoromethyl)-1-(methylsulfonyl)pyrrolidin-3-yl)amino)-6-(6-(trifluoromethyl)pyridin-3-yl)pyrrolo[1,2-b]pyridazine-3-carboxamide] | 
8 | 0.4 |  | CC(=O)N1C[C@H]2C[C@@H](Nc3c(C(N)=O)cnn4cc(-c5cnn(C)c5)cc34)[C@H](C)[C@H]2C1 [Example 93, 4-((3aS,4R,5R,6aS)-2-acetyl-4-methyloctahydrocyclopenta[c]pyrrol-5-ylamino)-6-(1-methyl-1H-pyrazol-4-yl)pyrrolo[1,2-b]pyridazine-3-carboxamide] | 

Further lines, the molecule ahead of its results:

Row | Structure (SMILES) | IC50 [1] [nM] | IC50 ([2]; JAK1 kinase inhibition) [nM] | IC50 [2] [nM]
9 | COc1ncc(-c2cc3c(N[C@@H]4CN(C(=O)C5(C#N)CC5)C[C@@H]4CF)c(C(N)=O)cnn3c2)cn1 [Example 280, 4-((3S,4S)-1-(1-cyanocyclopropanecarbonyl)-4-(fluoromethyl)pyrrolidin-3-ylamino)-6-(2-methoxypyrimidin-5-yl)pyrrolo[1,2-b]pyridazine-3-carboxamide] | 8.9 | 0.9 | 
10 | CNC(=O)Cn1cc(-c2cc3c(N[C@@H]4CN(c5ccc(Cl)cn5)C[C@@H]4C)c(C(N)=O)cnn3c2)cn1 [Example 188, 4-(((3S,4S)-1-(5-chloropyridin-2-yl)-4-methylpyrroldin-3-yl)amino)-6-(1-(2-(methylamino)-2-oxoethyl)-1H-pyrazol-4-yl)pyrrolo[1,2-b]pyridazine-3-carboxamide] | 0.5 | 0.4 | 
11 | C[C@@H]1[C@H]2CN(C(=O)CF)C[C@H]2C[C@H]1Nc1c(C(N)=O)cnn2cc(-c3cnc(N)c(F)c3)cc12 [Example 69, 6-(6-amino-5-fluoropyridin-3-yl)-4-((3aS,4R,5R,6aS)-2-(2-fluoroacetyl)-4-methyloctahydrocyclopenta[c]pyrrol-5-ylamino)pyrrolo[1,2-b]pyridazine-3-carboxamide] | 1.5 |  | 1.2
12 | NC(=O)c1cnn2cc(-c3ccccc3)cc2c1N[C@@H]1CCCNC1 [Example 48, (R)-6-phenyl-4-(piperidin-3-ylamino)pyrrolo[1,2-b]pyridazine-3-carboxamide, HCl] | 57.1 | 53.4 | 
13 | CO[C@H]1CN(C(=O)C2(C#N)CC2)C[C@H]1Nc1c(C(N)=O)cnn2cc(-c3ccc(C#N)cc3)cc12 [Example 308, 4-(((3R,4S)-1-(1-cyanocyclopropanecarbonyl)-4-methoxypyrrolidin-3-yl)amino)-6-(4-cyanophenyl)pyrrolo[1,2-b]pyridazine-3-carboxamide] | 6.6 | 1.5 | 
14 | COc1ccc(-c2cc3c(N[C@@H]4CCN(C(=O)[C@@H](C)O)CC4(C)C)c(C(N)=O)cnn3c2)cn1 [Example 56] | 3.3 |  | 
15 | C[C@H]1CN(c2ccc(C#N)cn2)C[C@H]1Nc1c(C(N)=O)cnn2cc(-c3cnn(CC(=O)N4CC(F)(F)C4)c3)cc12 [Example 184, 4-(((3S,4S)-1-(5-cyanopyridin-2-yl)-4-methylpyrrolidin-3-yl)amino)-6-(1-(2-(3,3-difluoroazetidin-1-yl)-2-oxoethyl)-1H-pyrazol-4-yl)pyrrolo[1,2-b]pyridazine-3-carboxamide] | 0.4 | 0.2 | 
16 | NC(=O)c1cnn2cc(-c3cnc4ccccc4c3)cc2c1NC1CCOCC1 [Example 35, 6-(3-quinolinyl)-4-(tetrahydro-2H-pyran-4-ylamino)pyrrolo[1,2-b]pyridazine-3-carboxamide] | 40 | 40 | 
17 | CC[C@H]1CN(c2ncc(C#N)s2)C[C@H]1Nc1c(C(N)=O)cnn2cc(-c3cnn(C)c3)cc12 [Example 182, 4-((3S,4S)-1-(5-cyanothiazol-2-yl)-4-ethylpyrrolin-3-ylamino)-6-(1-methyl-1H-pyrazol-4-yl)pyrrolo[1,2-b]pyridazine-3-carboxamide] | 0.3 | 0.8 | 
18 | CCOc1ncc(-c2cc3c(N[C@@H]4CN(C(=O)C5(C#N)CC5)C[C@@H]4CF)c(C(N)=O)cnn3c2)cn1 [Example 281, 4-((3S,4S)-1-(1-cyanocyclopropanecarbonyl)-4-(fluoromethyl)pyrrolidin-3-ylamino)-6-(2-ethoxypyrimidin-5-yl)pyrrolo[1,2-b]pyridazine-3-carboxamide] | 11.8 | 1.8 | 
19 | CNC(=O)c1ccc(-c2cc3c(N[C@@H]4CN(C(=O)OC)C[C@@H]4C)c(C(N)=O)cnn3c2)cn1 [Example 213, (3S,4S)-methyl 3-((3-carbamoyl-6-(6-(methylcarbamoyl)pyridin-3-yl)pyrrolo[1,2-b]pyridazin-4-yl)amino)-4-methylpyrrolidine-1-carboxylate] | 7.5 | 4.7 | 
20 | CCCC(=O)O[C@H]1CCN(c2cc3c(N[C@@H]4CCN(c5ncc(C#N)cn5)CC4(C)C)c(C(N)=O)cnn3c2)C1=O [Example 122, (S)-1-(3-carbamoyl-4-(((R)-1-(5-cyanopyrimidin-2-yl)-3,3-dimethylpiperidin-4-yl)amino)pyrrolo[1,2-b]pyridazin-6-yl)-2-oxopyrrolidin-3-yl butyrate] | 1.4 | 2.4 | 
21 | CC[C@H]1CN(c2ncc(C#N)s2)C[C@H]1Nc1c(C(N)=O)cnn2cc(-c3cnn(CC(C)C)c3)cc12 [Example 183] | 0.2 | 0.8 | 
22 | CCNC(=O)c1ccc(-c2cc3c(N[C@@H]4CN(C(=O)C(C)(C)C#N)C[C@@H]4CC)c(C(N)=O)cnn3c2)cn1 [Example 252, 4-((3S,4S)-1-(2-cyano-2-methylpropanoyl)-4-ethylpyrrolidin-3-ylamino)-6-(6-(ethylcarbamoyl)pyridin-3-yl)pyrrolo[1,2-b]pyridazine-3-carboxamide] | 8.6 | 4.3 | 
23 | CC[C@H]1CN(C(=O)C2(C#N)CC2)C[C@H]1Nc1c(C(N)=O)cnn2cc(-c3ccc(C)nc3)cc12 [Example 221, 4-((3S,4S)-1-(1-cyanocyclopropanecarbonyl)-4-ethylpyrrolidin-3-ylamino)-6-(6-methylpyridin-3-yl)pyrrolo[1,2-b]pyridazine-3-carboxamide] | 1.4 | 1 | 
24 | NC(=O)c1cnn2cc(-c3ccccc3F)cc2c1NC1CCOCC1 [Example 34, 6-(2-fluorophenyl)-4-(tetrahydro-2H-pyran-4-ylamino)pyrrolo[1,2-b]pyridazine-3-carboxamide] | 40 | 80 | 
25 | CNC(=O)c1cccc(-c2cc3c(N[C@@H]4CN(C(=O)C5(C#N)CC5)C[C@@H]4OC)c(C(N)=O)cnn3c2)c1 [Example 303, 4-(((3R,4S)-1-(1-cyanocyclopropanecarbonyl)-4-methoxypyrrolidin-3-yl)amino)-6-(3-(methylcarbamoyl)phenyl)pyrrolo[1,2-b]pyridazine-3-carboxamide] | 1.5 | 0.5 | 
